Assay: Solubility study of adapalene with randomly methylated β-cyclodextrins
Format: physicochemical
Protocol: A solubility study was performed by adding excess amounts of adapalene (5 mg) to six glass vials containing 10 mL aqueous solutions of increasing concentrations of randomly methylated β-cyclodextrins (0-7×10^−3 M) dissolved in 154 mM NaCl and 10 mM Na-phosphate (pH 7). The samples were mixed at room temperature for six days, and then they were centrifuged at 4000 rpm for 3 minutes. The supernatants were filtered through a 0.2 μm filter in order to remove undissolved adapalene. The UV absorbance of the filtrates was then measured at 320 nm in order to determine the concentration of dissolved adapalene. The concentration of adapalene in each sample was calculated from a calibration curve.
For sample 1, from the solubility diagram study in Example 16 containing 0.7 mM randomly methylated β-cyclodextrin and an excess of adapalene, 550 μl of the filtered sample, was added to a 2 ml Eppendorf tube. The sample was then lyophilized and the solvent exchanged to D2O.
Sample 2 containing 1.5 mM randomly methylated β-cyclodextrin and 0.15 mM of adapalene dissolved in D2O and 1% DMSO-d6 was prepared by adding 550 μl of the sample to a 2 ml Eppendorf tube. The sample was then lyophilized and the solvent exchanged again to D2O.

Question: For `COc1ccc(-c2ccc3cc(C(=O)O)ccc3c2)cc1C12CC3CC(CC(C3)C1)C2` [adapalene, 6-[3-(1-adamantyl)-4-methoxy-phenyl] naphthalene-2-carboxylic acid], which Solubility of adapalene (randomly methylated β-cyclodextrins 0-7×10^−3 M, 154 mM NaCl, 10 mM Na-phosphate pH 7, room temperature, six days (FIG. 3)) is on record?
Answer: increases with increasing CD concentration

Question: What about the Complexed adapalene (sample 1: 0.7 mM randomly methylated β-cyclodextrin, excess adapalene, filtered, according to solubility diagram data) of the same compound?
Answer: about 0.075 mM

Question: What about the Complexed adapalene (sample 2: 1.5 mM randomly methylated β-cyclodextrin and 0.15 mM adapalene in D2O and 1% DMSO-d6) of the same compound?
Answer: about 0.15 mM
